Test results: patent US6426369B1, “Oxethazaine as antimicrobial agent” (Eisai Co., Ltd., priority 1997, dated 2002)
Converted amounts (≈) assume the structure as drawn.

Tests used:
[1] = system: H. pylori; experiment: Antimicrobial activity test 2: time for sterilizing H. pylori (viable cell count in Brucella broth); assay type: cell-based, Helicobacter pylori; details: NCTC 11637
Experimental: A solution of the test compound was added to Brucella broth containing 5% fetal bovine serum, cultured under slightly aerobic conditions at 37° C., and the vial microbe cell number in Brucella agar containing 7% horse blood was counted at predetermined intervals. The above compound (1) was dissolved in a 1% aqueous solution of […] (DMSO), and the above compound (2) was dissolved in water to prepare a solution of each test compound. “cfu” in Tables and Figures means “colony forming unit”.

[2] = system: H. pylori; experiment: Antimicrobial activity test 1: anti-H. pylori activity of a single compound (agar plate method); assay type: cell-based, Helicobacter pylori; details: Helicobacter pylori, read-out: MIC (growth inhibition)
[3] = system: H. pylori; details: PPI alone, 30 mg/day, 8 weeks; cited from earlier work
[4] = system: Gram-positive bacteria; experiment: Antimicrobial activity (MIC) of oxethazaine and structure analogues against Gram-positive bacteria; assay type: cell-based
[5] = system: H. pylori; experiment: Antimicrobial activity test 3: oxethazaine in combination with compound (II), checker board method; assay type: cell-based; details: Helicobacter pylori
Excerpt: In each Table, the concentration of oxethazaine is shown vertically, and the concentration of compound (II) is shown horizontally. In each Table, “−” indicates the inhibited growth of H. pylori (presence of antimicrobial activity), and “+” indicates the growth of H. pylori (absence of antimicrobial activity). […] It is assumed to be present when the MIC of either oxethazaine or PPI is reduced by ½ (when anti-H. pylori activity is not recognized when the concentrations of both oxethazaine and PPI are reduced to ¼, but anti-H. pylori activity is recognized when the concentration of one compound is reduced to ¼ and simultaneously the concentration of the other compound is reduced to ½.).

[6] = system: H. pylori; experiment: Antimicrobial activity test 6: oxethazaine in combination with an antibiotic (AMPC, CAM, RXM), checker board method; assay type: cell-based, Helicobacter pylori; details: combined use with oxethazaine; out of 15 strains (AMPC), 21 strains (CAM), 22 strains (RXM)
Excerpt: The effect of combined use with amoxicillin (AMPC), clarithromycin (CAM) or roxithromycin (RXM) was examined in the same manner as in antimicrobial activity test 1, using the checker board method.

[7] = strain 90-397 (first line, r19)
[8] = strain 90-397 (second line, r25)

SMILES	MIC ([2]; NCTC11637, strain NCTC11637)	MIC ([2]; NCTC11639, strain NCTC11639)	MIC ([2]; NCTC11916, strain NCTC11916)	MIC ([2]; strain 89-355)	MIC ([2]; strain 89-357)	MIC ([2]; strain 89-360)	MIC ([2]; strain 90-384)	MIC ([2]; strain 90-388 (1))	MIC ([2]; strain 90-388)	MIC ([2]; strain 90-390 (1))	MIC ([2]; strain 90-390)	MIC ([2]; strain 90-392)	MIC [2, 7]	MIC [2, 8]	MIC ([2]; strain 90-407)	MIC ([2]; strain 90-411)	MIC ([2]; strain 90-414 (1))	MIC ([2]; strain 90-414)	MIC ([2]; strain 90-428)	MIC ([2]; strain EH12)	other results
CC1(C)S[C@@H]2[C@H](NC(=O)[C@H](N)c3ccccc3)C(=O)N2[C@H]1C(=O)O [ampicillin]	–	–	–	–	–	–	–	–	–	–	–	–	–	–	–	–	–	–	–	–	Viable microbe cell number ([1]; 1 MIC, 0 h): 6.25 log10cfu/ml; Viable microbe cell number ([1]; 1 MIC, 3 h): 5.51 log10cfu/ml; Viable microbe cell number ([1]; 1 MIC, 6 h): 4.49 log10cfu/ml; Viable microbe cell number ([1]; 1 MIC, 24 h): 3.48 log10cfu/ml; Viable microbe cell number ([1]; 2 MIC, 0 h): 6.25 log10cfu/ml; Viable microbe cell number ([1]; 2 MIC, 3 h): 5.30 log10cfu/ml; Viable microbe cell number ([1]; 2 MIC, 6 h): 4.41 log10cfu/ml; Viable microbe cell number ([1]; 2 MIC, 24 h): 3.00 log10cfu/ml; Viable microbe cell number ([1]; 4 MIC, 0 h): 6.25 log10cfu/ml; Viable microbe cell number ([1]; 4 MIC, 3 h): 4.95 log10cfu/ml; Viable microbe cell number ([1]; 4 MIC, 6 h): 4.20 log10cfu/ml; Viable microbe cell number ([1]; 4 MIC, 24 h): 2.48 log10cfu/ml
CCOC(=O)c1ccc(NC(=O)CN2CCCCC2)cc1 [(B)]	–	–	–	–	–	–	–	–	–	–	–	–	–	–	–	–	–	–	–	–	antimicrobial activity (MIC) ([4]; E. faecalis RIMD 3116001): >100 µg/mL; antimicrobial activity (MIC) ([4]; S. aureus FDA 209-P): >100 µg/mL; antimicrobial activity (MIC) ([4]; S. epidermidis ATCC 12228): >100 µg/mL
CCOC(=O)c1ccc(N)cc1 [(A)]	–	–	–	–	–	–	–	–	–	–	–	–	–	–	–	–	–	–	–	–	antimicrobial activity (MIC) ([4]; E. faecalis RIMD 3116001): >100 µg/mL; antimicrobial activity (MIC) ([4]; S. aureus FDA 209-P): >100 µg/mL; antimicrobial activity (MIC) ([4]; S. epidermidis ATCC 12228): >100 µg/mL
CC1(C)S[C@@H]2[C@H](NC(=O)[C@H](N)c3ccc(O)cc3)C(=O)N2[C@H]1C(=O)O [Amoxicillin, amoxicillin]	–	–	–	–	–	–	–	–	–	–	–	–	–	–	–	–	–	–	–	–	additive effect, number of strains [6]: 10 strains/; synergism, number of strains [6]: 0 strains/
CCN(CC)CCOC(=O)c1ccc(N)cc1.Cl [(C)]	–	–	–	–	–	–	–	–	–	–	–	–	–	–	–	–	–	–	–	–	antimicrobial activity (MIC) ([4]; E. faecalis RIMD 3116001): >100 µg/mL; antimicrobial activity (MIC) ([4]; S. aureus FDA 209-P): >100 µg/mL; antimicrobial activity (MIC) ([4]; S. epidermidis ATCC 12228): >100 µg/mL

Now from value to molecule, other results behind:

MIC ([2]; NCTC11637, strain NCTC11637)	MIC ([2]; NCTC11639, strain NCTC11639)	MIC ([2]; NCTC11916, strain NCTC11916)	MIC ([2]; strain 89-355)	MIC ([2]; strain 89-357)	MIC ([2]; strain 89-360)	MIC ([2]; strain 90-384)	MIC ([2]; strain 90-388 (1))	MIC ([2]; strain 90-388)	MIC ([2]; strain 90-390 (1))	MIC ([2]; strain 90-390)	MIC ([2]; strain 90-392)	MIC [2, 7]	MIC [2, 8]	MIC ([2]; strain 90-407)	MIC ([2]; strain 90-411)	MIC ([2]; strain 90-414 (1))	MIC ([2]; strain 90-414)	MIC ([2]; strain 90-428)	MIC ([2]; strain EH12)	SMILES	other results
12.5 µg/mL (≈ 33.8 µM)	3.13 µg/mL (≈ 8.47 µM)	6.25 µg/mL (≈ 16.9 µM)	3.13 µg/mL (≈ 8.47 µM)	6.25 µg/mL (≈ 16.9 µM)	6.25 µg/mL (≈ 16.9 µM)	3.13 µg/mL (≈ 8.47 µM)	6.25 µg/mL (≈ 16.9 µM)	3.13 µg/mL (≈ 8.47 µM)	6.25 µg/mL (≈ 16.9 µM)	3.13 µg/mL (≈ 8.47 µM)	6.25 µg/mL (≈ 16.9 µM)	3.13 µg/mL (≈ 8.47 µM)	6.25 µg/mL (≈ 16.9 µM)	3.13 µg/mL (≈ 8.47 µM)	3.13 µg/mL (≈ 8.47 µM)	6.25 µg/mL (≈ 16.9 µM)	6.25 µg/mL (≈ 16.9 µM)	6.25 µg/mL (≈ 16.9 µM)	3.13 µg/mL (≈ 8.47 µM)	Cc1c(OCC(F)(F)F)ccnc1C[S+]([O-])c1nc2ccccc2[nH]1 (stereo not drawn) [Compound (IV), lansoprazole]	MIC ([2]; strain 89-360 (1)): 6.25 µg/mL (≈ 16.9 µM); MIC ([2]; strain 90-407 (1)): 6.25 µg/mL (≈ 16.9 µM); MIC ([2]; strain EH13): 3.13 µg/mL (≈ 8.47 µM); MIC ([2]; strain EH16): 3.13 µg/mL (≈ 8.47 µM); MIC ([2]; strain EH26): 6.25 µg/mL (≈ 16.9 µM); degree of efficacy for H. pylori therapy [3]: 5%
1.56 µg/mL (≈ 4.54 µM)	0.8 µg/mL (≈ 2.33 µM)	1.56 µg/mL (≈ 4.54 µM)	1.56 µg/mL (≈ 4.54 µM)	0.8 µg/mL (≈ 2.33 µM)	1.56 µg/mL (≈ 4.54 µM)	1.56 µg/mL (≈ 4.54 µM)	0.8 µg/mL (≈ 2.33 µM)	1.56 µg/mL (≈ 4.54 µM)	0.8 µg/mL (≈ 2.33 µM)	0.8 µg/mL (≈ 2.33 µM)	0.8 µg/mL (≈ 2.33 µM)	1.56 µg/mL (≈ 4.54 µM)	0.8 µg/mL (≈ 2.33 µM)	1.56 µg/mL (≈ 4.54 µM)	0.8 µg/mL (≈ 2.33 µM)	0.8 µg/mL (≈ 2.33 µM)	0.8 µg/mL (≈ 2.33 µM)	1.56 µg/mL (≈ 4.54 µM)	0.8 µg/mL (≈ 2.33 µM)	COCCCOc1ccnc(CSc2nc3ccccc3[nH]2)c1C [Compound (II), 2-[4-(3-methoxypropoxy)-3-methylpyridine-2-yl]methylthio-1H-benzimidazole]	MIC ([2]; strain 89-360 (1)): 1.56 µg/mL (≈ 4.54 µM); MIC ([2]; strain 90-407 (1)): 0.8 µg/mL (≈ 2.33 µM); MIC ([2]; strain EH13): 0.8 µg/mL (≈ 2.33 µM); MIC ([2]; strain EH16): 0.8 µg/mL (≈ 2.33 µM); MIC ([2]; strain EH26): 1.56 µg/mL (≈ 4.54 µM); MIC ([5]; NCTC11637, NCTC 11637): 1.56 µg/mL; MIC ([5]; NCTC11639, NCTC 11639): 0.8 µg/mL
50 µg/mL (≈ 145 µM)	25 µg/mL (≈ 72.4 µM)	50 µg/mL (≈ 145 µM)	25 µg/mL (≈ 72.4 µM)	50 µg/mL (≈ 145 µM)	50 µg/mL (≈ 145 µM)	50 µg/mL (≈ 145 µM)	25 µg/mL (≈ 72.4 µM)	50 µg/mL (≈ 145 µM)	25 µg/mL (≈ 72.4 µM)	50 µg/mL (≈ 145 µM)	25 µg/mL (≈ 72.4 µM)	25 µg/mL (≈ 72.4 µM)	25 µg/mL (≈ 72.4 µM)	25 µg/mL (≈ 72.4 µM)	25 µg/mL (≈ 72.4 µM)	25 µg/mL (≈ 72.4 µM)	50 µg/mL (≈ 145 µM)	50 µg/mL (≈ 145 µM)	25 µg/mL (≈ 72.4 µM)	COc1ccc2[nH]c([S+]([O-])Cc3ncc(C)c(OC)c3C)nc2c1 (stereo not drawn) [Compound (III), omeprazole]	MIC ([2]; strain EH13): 25 µg/mL (≈ 72.4 µM); MIC ([2]; strain EH16): 25 µg/mL (≈ 72.4 µM); MIC ([2]; strain EH26): 25 µg/mL (≈ 72.4 µM)
